Test results published in ChEMBL document CHEMBL5625252, “Synthesis of peptidomimetics as antibiotic adjuvants for combination with aztreonam to combat MDR Pseudomonas aeruginosa” (Eur J Med Chem, 2023).
≈ marks a conversion by molar mass, not a printed value. Calls of active or inactive are those of the source. The calls are words filed in the database; no cut-off is given here.

What was measured:
[1] = system: Pseudomonas aeruginosa; assay: Synergistic antibacterial activity against Pseudomonas aeruginosa 21-2 assessed as aztreonam MIC at 128 ug/ml incubated for 18 hrs by checkerboard method; format: functional; details: dose 128 µg/ml
[2] = system: Pseudomonas aeruginosa; assay: Antibacterial activity against Pseudomonas aeruginosa PAO1 assessed as decrease in log10 CFU at 128 ug/ml measured after 24 hrs in presence of aztreonam by time-kill assay; format: functional; details: dose 128 µg/ml
[3] = system: Pseudomonas aeruginosa; assay: Antibacterial activity against Pseudomonas aeruginosa 13-17 assessed as inhibition of bacterial growth incubated for 18 hrs by agar dilution method; format: functional
[4] = system: Pseudomonas aeruginosa; assay: Antibacterial activity against Pseudomonas aeruginosa 16-2 assessed as decrease in log10 CFU at 128 ug/ml measured after 24 hrs in presence of aztreonam by time-kill assay; format: functional; details: dose 128 µg/ml
[5] = system: Pseudomonas aeruginosa; assay: Antibacterial activity against Pseudomonas aeruginosa PAO1 infected in Galleria mellonella assessed as larvae survival rate at 100 mg/kg measured after 96 hrs post inoculation in presence of 50 mg/kg aztreonam; format: functional
[6] = system: Pseudomonas aeruginosa; assay: Antibacterial activity against Pseudomonas aeruginosa PAO1 at 128 ug/ml measured upto 24 hrs in presence of aztreonam by time-kill assay; format: functional, organism-based; details: dose 128.0 µg/ml
[7] = system: Pseudomonas aeruginosa; assay: Synergistic antibacterial activity against Pseudomonas aeruginosa 12-1 assessed as aztreonam MIC in CAMH broth medium supplemented with 0.41 to 0.51 mM Mg2+ by checkerboard assay; format: functional
[8] = system: Pseudomonas aeruginosa; assay: Synergistic antibacterial activity against Pseudomonas aeruginosa 23-Y511 assessed as aztreonam MIC at 128 ug/ml incubated for 18 hrs by checkerboard method; format: functional; details: dose 128 µg/ml
[9] = system: Pseudomonas aeruginosa; assay: Synergistic antibacterial activity against Pseudomonas aeruginosa 16-11 assessed as aztreonam MIC in CAMH broth medium supplemented with 0.41 to 0.51 mM Mg2+ by checkerboard assay; format: functional
[10] = system: Pseudomonas aeruginosa; assay: Synergistic antibacterial activity against Pseudomonas aeruginosa 23-Y539 assessed as aztreonam MIC at 128 ug/ml incubated for 18 hrs by checkerboard method; format: functional; details: dose 128 µg/ml
[11] = system: Pseudomonas aeruginosa; assay: Antibacterial activity against Pseudomonas aeruginosa 16-11 assessed as inhibition of bacterial growth incubated for 18 hrs by agar dilution method; format: functional
[12] = system: Pseudomonas aeruginosa; assay: Antibacterial activity against Pseudomonas aeruginosa 13-3 assessed as inhibition of bacterial growth incubated for 18 hrs by agar dilution method; format: functional
[13] = system: Pseudomonas aeruginosa; assay: Synergistic antibacterial activity against Pseudomonas aeruginosa 13-35 assessed as aztreonam MIC in CAMH broth medium supplemented with 20.99 to 21.09 mM Mg2+ by checkerboard assay; format: functional
[14] = system: Pseudomonas aeruginosa; assay: Antibacterial activity against Pseudomonas aeruginosa 16-2 at 128 ug/ml measured upto 24 hrs by time-kill assay; format: functional, organism-based; details: dose 128.0 µg/ml
[15] = system: Pseudomonas aeruginosa; assay: Synergistic antibacterial activity against Pseudomonas aeruginosa 19-46 assessed as aztreonam MIC at 128 ug/ml incubated for 18 hrs by checkerboard method; format: functional; details: dose 128 µg/ml
[16] = system: Pseudomonas aeruginosa; assay: Antibacterial activity against Pseudomonas aeruginosa 12-1 assessed as inhibition of bacterial growth incubated for 18 hrs by agar dilution method; format: functional
[17] = system: Pseudomonas aeruginosa; assay: Synergistic antibacterial activity against Pseudomonas aeruginosa 21-7 assessed as aztreonam MIC at 128 ug/ml incubated for 18 hrs by checkerboard method; format: functional; details: dose 128 µg/ml
[18] = system: Pseudomonas aeruginosa; assay: Antibacterial activity against Pseudomonas aeruginosa 21-7 assessed as inhibition of bacterial growth incubated for 18 hrs by agar dilution method; format: functional
[19] = system: Pseudomonas aeruginosa; assay: Synergistic antibacterial activity against Pseudomonas aeruginosa 13-17 assessed as aztreonam MIC at 128 ug/ml incubated for 18 hrs by checkerboard method; format: functional; details: dose 128 µg/ml
[20] = system: Pseudomonas aeruginosa; assay: Synergistic antibacterial activity against Pseudomonas aeruginosa 16-11 assessed as aztreonam MIC in CAMH broth medium supplemented with 20.99 to 21.09 mM Mg2+ by checkerboard assay; format: functional
[21] = system: Pseudomonas aeruginosa; assay: Antibacterial activity against Pseudomonas aeruginosa 23-Y372 assessed as inhibition of bacterial growth incubated for 18 hrs by agar dilution method; format: functional
[22] = system: Pseudomonas aeruginosa; assay: Antibacterial activity against Pseudomonas aeruginosa 16-2 infected in Galleria mellonella assessed as larvae survival rate at 100 mg/kg after 96 hrs of innoculation; format: functional
[23] = system: Pseudomonas aeruginosa; assay: Synergistic antibacterial activity against Pseudomonas aeruginosa 16-11 assessed as aztreonam MIC at 128 ug/ml incubated for 18 hrs by checkerboard method; format: functional; details: dose 128 µg/ml
[24] = system: Pseudomonas aeruginosa; assay: Antibacterial activity against Pseudomonas aeruginosa 16-2 assessed as inhibition of bacterial growth incubated for 18 hrs by agar dilution method; format: functional
[25] = system: Pseudomonas aeruginosa; assay: Synergistic antibacterial activity against Pseudomonas aeruginosa 13-35 assessed as aztreonam MIC at 128 ug/ml incubated for 18 hrs by checkerboard method; format: functional; details: dose 128 µg/ml
[26] = system: Pseudomonas aeruginosa; assay: Synergistic antibacterial activity against Pseudomonas aeruginosa PAO1 assessed as aztreonam MIC in CAMH broth medium supplemented with 0.41 to 0.51 mM Mg2+ by checkerboard assay; format: functional
[27] = system: Pseudomonas aeruginosa; assay: Synergistic antibacterial activity against Pseudomonas aeruginosa 23-Y417 assessed as aztreonam MIC at 128 ug/ml incubated for 18 hrs by checkerboard method; format: functional; details: dose 128 µg/ml

For `NCCC[C@H](NC(=O)C[C@@H](N)Cc1ccccc1)C(=O)Nc1ccc2ccccc2c1`, the MIC [1] was 16 µg/mL, the Activity [2] was over 2 log10CFU/ml and the MIC [3] was 512 µg/mL (≈ 1220 µM). The Activity [4] was over 2 log10CFU/ml, the Activity [5] was 80% and the Activity [6] was “Active”. The MIC [7] was 16 µg/mL, the MIC [8] was 16 µg/mL and the MIC [9] was 2 µg/mL. The MIC [10] was 4 µg/mL, the MIC [11] was 512 µg/mL (≈ 1220 µM) and the MIC [12] was 512 µg/mL (≈ 1220 µM). For the same compound, the MIC [13] was 32 µg/mL, the Activity [14] was “inactive” and the MIC [15] was 16 µg/mL. For the same compound, the MIC [16] was 512 µg/mL (≈ 1220 µM), the MIC [17] was 64 µg/mL and the MIC [18] was 512 µg/mL (≈ 1220 µM). It also gave an MIC [19] of 4 µg/mL, an MIC [20] of 8 µg/mL and an MIC [21] of 512 µg/mL (≈ 1220 µM). For the same compound, the Activity [22] was 20%, the MIC [23] was 2 µg/mL and the MIC [24] was 513 µg/mL (≈ 1230 µM). It also gave an MIC [25] of 4 µg/mL, an MIC [26] of 2 µg/mL and an MIC [27] of 8 µg/mL.
